From DBAASP
Values after ≈ are worked out from the molar mass of the structure shown. Values belong to the molecule of their own block, whether it stands above or below them.

How the values were obtained:
Experiment in all cases: ≥ marks a high value that may be exact or a test limit, other limits are often not marked, values filed in µg/mL are converted to µM
Bacillus subtilis = system: Bacillus subtilis
Micrococcus luteus MT166 = system: Micrococcus luteus MT166
[1] = system: Saccharomyces cerevisiae ATCC 8530
[2] = system: Pseudomonas putida NCIM 2102
Escherichia coli W160-37 = system: Escherichia coli W160-37
[3] = system: Staphylococcus aureus ATCC 8530
[4] = system: Pseudomonas aeruginosa 3547
[5] = system: Staphylococcus epidermidis KCTC 3096
[6] = system: Aspergillus fumigatus KCTC 6145
[7] = system: Pseudomonas aeruginosa ATCC 15692
[8] = system: Salmonella typhimurium KCTC 1926
[9] = system: Escherichia coli CCARM 1238
[10] = system: Staphylococcus aureus PBEL
[11] = system: Aspergillus flavus KCTC 6905
[12] = system: Listeria monocytogenes ATCC 19115
[13] = system: Trichosporon beigelii KCTC 7707
[14] = system: Staphylococcus epidermidis ATCC 12228
[15] = system: Staphylococcus aureus CCARM 3114
[16] = system: Staphylococcus aureus CCARM 3089
[17] = system: Pseudomonas aeruginosa KCTC 1637
[18] = system: Aspergillus parasiticus KCTC 6598
[19] = system: Bacillus subtilis KCTC 1918
[20] = system: Salmonella typhimurium CCARM 8009
[21] = system: Bacillus subtilis KCTC 1998
[22] = system: Pseudomonas aeruginosa 4007
[23] = system: Proteus vulgaris KCTC 2433
[24] = system: Salmonella typhimurium CCARM 8013
[25] = system: Candida albicans KCTC 7270
[26] = system: Listeria monocytogenes KCTC 3710
[27] = system: Escherichia coli CCARM 1229
[28] = system: Aspergillus awamori KCTC 6915
[29] = system: Klebsiella pneumoniae 1625
Acinetobacter baumannii = system: Acinetobacter baumannii
[30] = system: Klebsiella pneumoniae 913
[31] = system: Pseudomonas aeruginosa 4677
[32] = system: Pseudomonas aeruginosa 5106
Escherichia coli 170 = system: Escherichia coli 170
Escherichia coli 4530 = system: Escherichia coli 4530
[33] = system: Escherichia coli ATCC 25922
[34] = system: Enterobacter cloacae 6780
[35] = system: Enterobacter cloacae 2524
[36] = system: Pseudomonas aeruginosa CMCCB 1010
Shigella dysenteriae = system: Shigella dysenteriae
Klebsiella pneumoniae = system: Klebsiella pneumoniae
[37] = system: Candida albicans ATCC 2002
[38] = system: Pseudomonas aeruginosa ATCC 27853
[39] = system: Enterobacter cloacae ATCC 13047
Staphylococcus aureus 37 = system: Staphylococcus aureus 37
Escherichia coli 218 = system: Escherichia coli 218
[40] = system: Staphylococcus aureus ATCC 25923
[41] = system: Enterococcus faecalis ATCC 29212
Escherichia coli 117 = system: Escherichia coli 117
Pseudomonas aeruginosa = system: Pseudomonas aeruginosa
[42] = system: Candida albicans ATCC 90028
Escherichia coli 37 = system: Escherichia coli 37
[43] = system: Candida parapsilosis ATCC 22019
[44] = system: Klebsiella pneumoniae ATCC 700603

MIC (Bacillus subtilis): 22.3 µM (≈ 29.9 µg/mL) | MIC (Micrococcus luteus MT166): 14.9 µM (≈ 20 µg/mL) | MIC [1]: ≥ 59.5 µM | MIC [2]: 29.8 µM (≈ 39.9 µg/mL) | MIC (Escherichia coli W160-37): 29.8 µM (≈ 39.9 µg/mL) | MIC [3]: 22.3 µM (≈ 29.9 µg/mL)
Compound: CC[C@H](C)[C@@H]1NC(=O)[C@H](CCSC)NC(=O)[C@H]([C@@H](C)O)NC(=O)[C@@H](NC(=O)[C@@H](N)Cc2ccccc2)CSSC[C@@H](C(=O)N[C@@H](Cc2ccc(O)cc2)C(N)=O)NC(=O)[C@H](CCCN=C(N)N)NC(=O)[C@@H]2CCCN2C(=O)[C@H]([C@@H](C)CC)NC(=O)[C@@H]2CCCN2C1=O [FCTMIPIPRCY]

MIC [4]: 4 µM (≈ 8.25 µg/mL) | MIC [5]: 2.83 µM (≈ 5.83 µg/mL) | MIC [6]: 4 µM (≈ 8.25 µg/mL) | MIC [7]: 2 µM (≈ 4.13 µg/mL) | MIC [8]: 2 µM (≈ 4.13 µg/mL) | MIC [9]: 2 µM (≈ 4.13 µg/mL) | MIC [10]: 1 µM (≈ 2.06 µg/mL) | MIC [11]: 16 µM (≈ 33 µg/mL) | MIC [12]: 2 µM (≈ 4.13 µg/mL) | MIC [13]: 16 µM (≈ 33 µg/mL) | MIC [14]: 2.83 µM (≈ 5.83 µg/mL) | MIC [15]: 2 µM (≈ 4.13 µg/mL) | MIC [16]: 2 µM (≈ 4.13 µg/mL) | MIC [17]: 2 µM (≈ 4.13 µg/mL) | MIC [18]: 8 µM (≈ 16.5 µg/mL) | MIC [19]: 2 µM (≈ 4.13 µg/mL) | MIC [20]: 4 µM (≈ 8.25 µg/mL) | MIC [21]: 2 µM (≈ 4.13 µg/mL) | MIC [22]: 1 µM (≈ 2.06 µg/mL) | MIC [23]: 8 µM (≈ 16.5 µg/mL) | MIC [24]: 1 µM (≈ 2.06 µg/mL) | MIC [25]: 8 µM (≈ 16.5 µg/mL) | MIC [26]: 2 µM (≈ 4.13 µg/mL) | MIC [27]: 2 µM (≈ 4.13 µg/mL) | MIC [28]: 16 µM (≈ 33 µg/mL)
Compound: CC[C@H](C)[C@H](NC(=O)[C@H](CCCCN)NC(=O)[C@H](CCCCN)NC(=O)[C@H](Cc1ccccc1)NC(=O)[C@H](CC(C)C)NC(=O)[C@H](CCCCN)NC(=O)[C@H](CCCCN)NC(=O)[C@H](CC(C)C)NC(=O)[C@H](CCCN=C(N)N)NC(=O)[C@H](CCCCN)NC(=O)[C@@H](N)Cc1ccccc1)C(=O)N[C@@H](Cc1c[nH]c2ccccc12)C(=O)N[C@@H](CC(N)=O)C(=O)N[C@@H](Cc1c[nH]c2ccccc12)C(=O)N[C@@H](CCCCN)C(N)=O [FKRLKKLFKKIWNWK]

MIC [29]: 3.12 µM (≈ 7.79 µg/mL) | MIC (Acinetobacter baumannii): 8.84 µM (≈ 22.1 µg/mL) | MIC [30]: ≥ 50 µM | MIC [31]: 12.5 µM (≈ 31.2 µg/mL) | MIC [32]: ≥ 50 µM | MIC (Escherichia coli 170): 3.12 µM (≈ 7.79 µg/mL) | MIC (Escherichia coli 4530): 25 µM (≈ 62.4 µg/mL) | MIC [33]: 12.5 µM (≈ 31.2 µg/mL) | MIC [34]: 25 µM (≈ 62.4 µg/mL) | MIC [35]: ≥ 50 µM
Compound: CC[C@H](C)[C@H](N)C(=O)N[C@@H](CCCCN)C(=O)N[C@@H](CO)C(=O)N[C@H](C(=O)N[C@@H](C)C(=O)N[C@@H](CO)C(=O)N[C@@H](CCCCN)C(=O)N[C@H](C(=O)N[C@@H](C)C(=O)N[C@@H](CC(N)=O)C(=O)N[C@H](C(=O)N[C@H](C(=O)N[C@@H](CCC(N)=O)C(=O)N[C@@H](CCCCN)C(=O)N[C@@H](CC(C)C)C(=O)N[C@@H](CCCCN)C(=O)N[C@@H](CCCN=C(N)N)C(=O)N[C@@H](CCCCN)C(=O)N[C@@H](C)C(=O)N[C@@H](CCCCN)C(=O)N[C@@H](CC(N)=O)C(=O)N[C@@H](C)C(=O)N[C@H](C(=O)O)C(C)C)C(C)C)[C@@H](C)O)C(C)C)[C@@H](C)CC [IKSIASKVANTVQKLKRKAKNAV]

MIC [36]: 14.6 µM (≈ 20 µg/mL) | MIC (Shigella dysenteriae): 14.6 µM (≈ 20 µg/mL) | MIC (Klebsiella pneumoniae): 7.32 µM (≈ 10 µg/mL) | MIC [37]: 7.32 µM (≈ 10 µg/mL) | MIC [38]: 29.3 µM (≈ 40 µg/mL) | MIC [39]: 7.32 µM (≈ 10 µg/mL) | MIC (Staphylococcus aureus 37): 7.32 µM (≈ 10 µg/mL) | MIC (Escherichia coli 218): 7.32 µM (≈ 10 µg/mL) | MIC [40]: 3.66 µM (≈ 5 µg/mL) | MIC [41]: 3.66 µM (≈ 5 µg/mL) | MIC [33]: 14.6 µM (≈ 20 µg/mL) | MIC (Escherichia coli 117): 14.6 µM (≈ 20 µg/mL) | MIC (Pseudomonas aeruginosa): 7.32 µM (≈ 10 µg/mL) | MIC [42]: 7.32 µM (≈ 10 µg/mL) | MIC (Escherichia coli 37): 3.66 µM (≈ 5 µg/mL) | MIC [43]: 29.3 µM (≈ 40 µg/mL) | MIC [44]: 14.6 µM (≈ 20 µg/mL)
Compound: CC[C@H](C)[C@H](NC(=O)[C@H](C)NC(=O)[C@H](CCCCN)NC(=O)[C@H](CC(C)C)NC(=O)[C@@H](N)CC(N)=O)C(=O)N[C@@H](C)C(=O)N[C@@H](C)C(=O)N[C@@H](CC(C)C)C(=O)N[C@@H](C)C(=O)N[C@@H](CCCCN)C(=O)N[C@@H](CCCCN)C(=O)N[C@@H](CC(C)C)C(=O)N[C@@H](CC(C)C)C(=O)O [NLKAIAALAKKLL]
